{
  "source": "paper PMC6856805",
  "about": "“Environmental Risk Assessment for the Active Pharmaceutical Ingredient Mycophenolic Acid in European Surface Waters” (Environmental Toxicology and Chemistry, 2019)",
  "key": {"bacteria": {"system": "bacteria", "assay": "Derivation of provisional PNEC for antibiotic resistance (PNECABR)", "protocol": "Antibiotic resistance risk is assessed through comparing PECs or MECs with a PNEC for formation or maintenance of antibiotic resistance (PNECABR). There is no universally accepted or regulatory algorithm for deriving a reliable PNECABR for bacteria, so for the time being this is approximated by applying assessment factors to bacterial minimal inhibitory concentrations (MICs). […] To be fully consistent with Bengtsson‐Palme and Larsson's (2016) approach to PNECABR derivation, the authors were contacted for help; they (J. Bengtsson‐Palme, Department of Infectious Diseases, Institute of Biomedicine, The Sahlgrenska Academy, University of Gothenberg, Gothenberg, Sweden, personal communication) state that “we only use species with 10 or more MIC observations, to avoid drawing conclusions from insufficient data […] . The only species with >10 observations in the Noto et al. (1969) paper is S[taphylococcus] aureus. In addition, when the MIC1% are selected, only one MIC [J.O.Straub's italics] value is selected per species (the lowest). Finally, the uncertainty factor for low sampling numbers is calculated as: (observed lowest MIC) × (number of tested species) ÷ 41.” Both these provisional PNECABR values were derived from the MPA MICs; the lower was selected and compared with the PECs and MECs.\nNoto et al. (1969) tested the activity of MPA against various microorganisms, both fungi and some strains of bacteria. […] Higher inhibition of MPA was shown against pathogenic fungi of the genera Candida, Willia, Cryptococcus, Microsporum, Aspergillus, and Trichophyton, with MICs ranging from 3.9 to 500 mg/L (Noto et al. 1969)."}, "[1]": {"assay": "Screening hydrolysis test", "assay_type": "physicochemical", "details": "5 d", "protocol": "Syntex derived many basic physicochemical properties for both MPM and MPA in the early 1990s. The results for MPA are mostly given in the present study.\nA screening hydolysis test was performed by Syntex with MPA in 0.1 M buffered solutions in triplicate at pH 5, 7 and 9 over 5 days at 50 °C, with HPLC determination of MPA at the start and end of the exposure, 'closely following US Food and Drug Administration 1987 Environmental Assessment Technical Assistance Handbook recommendations' (Young & Licato 1994b)."}, "daphnid": {"system": "daphnid", "assay": "animal or person", "details": "read-out: 48‐h median effect concentration (EC50)"}, "[2]": {"set-up": "method as in Wishart et al. 2018; Royal Pharmaceutical Society 2018", "details": "ref Wishart et al. 2018; Royal Pharmaceutical Society 2018; cited from earlier work"}, "Cyprinus carpio": {"system": "Cyprinus carpio", "set-up": "method as in FASS 2018", "details": "OECD 203; ref FASS 2018; cited from earlier work"}, "Daphnia magna": {"system": "Daphnia magna", "assay": "OECD 211 chronic reproduction test", "assay_type": "in vivo", "details": "GMMC", "protocol": "An OECD 211 chronic reproduction test with the cladoceran Daphnia magna was performed by ECT Oekotoxikologie with a series of concentrations of MPA in daphnid test medium plus medium-only controls over 21 days (Egeler & Chambers 2018). The test medium was exchanged every 2–3 days, the daphnids were fed with live algae (Desmodesmus subspicatus) throughout the exposure. Fresh and old medium samples were analysed by LC–MS/MS (Supplemental Information) and the time-weighted mean measured concentrations (TWMMC) for the concentrations determined. Statistical data evaluation was performed using Williams's test, Fisher's Exact test, Multiple sequentially rejective U-test after Bonferroni-Holm and Probit analysis. The endpoints in this test were survival and size (length) of the parental daphnids at the end of the test; number of young daphnids released per surviving F0 mother; any malformations or undeveloped eggs; and the intrinsic rate of reproduction (IRR), which integrates both survival and reproduction, as a measure of longer-term stability (IRR ~1), growth (IRR >1) or decline (IRR <1) of a population."}, "[3]": {"assay": "Risk quotient PEC/PNEC or MEC/PNEC for STPs and surface freshwaters", "protocol": "The potential risk for STPs and surface freshwater organisms was characterized by dividing the various PECs and MECs by the respective PNECs for MPA (Committee for Medicinal Products for Human Use 2015). Further risk assessments were performed for antibiotic resistance risk due to the described antibiotic activity of MPA, risk for environmental top predators, and also risk for humans through so‐called secondary poisoning from uptake of water or fish."}},
  "data": [
    {"smiles": "COc1c(C)c2c(c(O)c1CC=C(C)CCC(=O)O)C(=O)OC2", "note": "[MPA, 6‐(1,3‐dihydro‐4‐hydroxy‐6‐methoxy‐7‐methyl‐3‐oxo‐5‐isobenzofuranyl)‐4‐methyl‐4‐hexenoic acid]", "values": [
      {"measurement": "provisional PNECABR (rounded down, selected)", "setting": "bacteria; lower of the 2 values", "value": 64, "unit": "µg MPA/L"},
      {"measurement": "first provisional PNECABR", "setting": "bacteria; lowest MIC divided by 100, following Kümmerer and Henninger (2003)", "value": 312.5, "unit": "µg/L"},
      {"measurement": "second provisional PNECABR", "setting": "bacteria; procedure of Bengtsson‐Palme and Larsson (2016), before rounding", "value": 76, "unit": "µg/L"},
      {"measurement": "Screening hydrolysis", "setting": "[1]; pH 5, 50 °C", "value": 46.15, "unit": "% Substance loss"},
      {"measurement": "Screening hydrolysis", "setting": "[1]; pH 7, 50 °C", "value": 29.03, "unit": "% Substance loss"},
      {"measurement": "Screening hydrolysis", "setting": "[1]; pH 9, 50 °C", "value": 36.67, "unit": "% Substance loss"},
      {"measurement": "EC50", "setting": "daphnid", "value": 755, "unit": "µg/mL"},
      {"measurement": "fraction phase‐I‐metabolized to 6‐O‐desmethyl‐MPA", "setting": "[2]", "value": "less than 1%"},
      {"measurement": "terminal half‐life", "setting": "[2]", "value": "approximately 18 h"},
      {"measurement": "acute fish 50% lethal concentration (LC50)", "setting": "Cyprinus carpio", "value": "> 100", "unit": "µg/mL"},
      {"measurement": "EC10, fecundity and reproduction", "setting": "Daphnia magna; 21 d", "value": 0.929, "unit": "µg/mL"},
      {"measurement": "LOEC, fecundity and reproduction", "setting": "Daphnia magna; 21 d", "value": 1800, "unit": "µg/L"},
      {"measurement": "LOEC, length of parental daphnids", "setting": "Daphnia magna; 21 d", "value": 1800, "unit": "µg/L"},
      {"measurement": "NOEC, fecundity and reproduction", "setting": "Daphnia magna; 21 d", "value": 630, "unit": "µg MPA/L"},
      {"measurement": "NOEC, length of parental daphnids", "setting": "Daphnia magna; 21 d", "value": 630, "unit": "µg/L"},
      {"measurement": "LOEC, mortality/immobility of parental daphnids and intrinsic rate of population increase", "setting": "Daphnia magna", "value": "> 7530", "unit": "µg/L"},
      {"measurement": "overall EC10 for the daphnids", "setting": "Daphnia magna", "value": 0.929, "unit": "µg/mL"},
      {"measurement": "overall NOEC for the daphnids", "setting": "Daphnia magna", "value": 630, "unit": "µg MPA/L"},
      {"measurement": "NOEC, mortality/immobility of parental daphnids and intrinsic rate of population increase", "setting": "Daphnia magna; highest tested concentration", "value": 7530, "unit": "µg MPA/L"},
      {"measurement": "highest PEC‐based risk quotient for STPs", "setting": "[3]; PECSTP 8.83 µg/L / PNECSTP", "value": 0.00128},
      {"measurement": "highest MEC‐based risk quotient for STPs", "setting": "[3]; STP effluent MEC 4.19 µg/L / PNECSTP", "value": 0.0006},
      {"measurement": "Risk quotient (PNECEC10), Average initial EMA EU PEC", "setting": "[3]; STP removal 0%", "value": 0.516},
      {"measurement": "Risk quotient (PNECEC10), Average refined PEC per country", "setting": "[3]; STP removal 12%", "value": 0.141},
      {"measurement": "Risk quotient (PNECEC10), Guadalquivir catchment low flow 99th percentile ePiE PEC", "setting": "[3]; STP removal 12%", "value": 21.41},
      {"measurement": "Risk quotient (PNECEC10), Guadalquivir catchment low flow median ePiE PEC", "setting": "[3]; STP removal 12%", "value": "<0.002"},
      {"measurement": "Risk quotient (PNECEC10), Guadalquivir catchment mean flow 1st percentile ePiE PEC", "setting": "[3]; STP removal 12%", "value": "<0.002"},
      {"measurement": "Risk quotient (PNECEC10), Guadalquivir catchment mean flow 99th percentile ePiE PEC", "setting": "[3]; STP removal 12%", "value": 9.474},
      {"measurement": "Risk quotient (PNECEC10), Guadalquivir catchment mean flow median ePiE PEC", "setting": "[3]; STP removal 12%", "value": "<0.002"},
      {"measurement": "Risk quotient (PNECEC10), Highest refined PEC per country", "setting": "[3]; STP removal 12%", "value": 0.917},
      {"measurement": "Risk quotient (PNECEC10), Lowest refined PEC per country", "setting": "[3]; STP removal 12%", "value": 0.003},
      {"measurement": "Risk quotient (PNECEC10), Median refined PEC per country", "setting": "[3]; STP removal 12%", "value": 0.100},
      {"measurement": "Risk quotient (PNECEC10), Ouse catchment low flow 99th percentile ePiE PEC", "setting": "[3]; STP removal 12%", "value": 4.967},
      {"measurement": "Risk quotient (PNECEC10), Ouse catchment low flow median ePiE PEC", "setting": "[3]; STP removal 12%", "value": 0.336},
      {"measurement": "Risk quotient (PNECEC10), Ouse catchment mean flow 1st percentile ePiE PEC", "setting": "[3]; STP removal 12%", "value": 0.002},
      {"measurement": "Risk quotient (PNECEC10), Ouse catchment mean flow 99th percentile ePiE PEC", "setting": "[3]; STP removal 12%", "value": 1.226},
      {"measurement": "Risk quotient (PNECEC10), Ouse catchment mean flow median ePiE PEC", "setting": "[3]; STP removal 12%", "value": 0.083},
      {"measurement": "Risk quotient (PNECEC10), Rhine catchment low flow 99th percentile ePiE PEC", "setting": "[3]; STP removal 12%", "value": 4.597},
      {"measurement": "Risk quotient (PNECEC10), Rhine catchment low flow median ePiE PEC", "setting": "[3]; STP removal 12%", "value": 0.036},
      {"measurement": "Risk quotient (PNECEC10), Rhine catchment mean flow 1st percentile ePiE PEC", "setting": "[3]; STP removal 12%", "value": "<0.002"},
      {"measurement": "Risk quotient (PNECEC10), Rhine catchment mean flow 99th percentile ePiE PEC", "setting": "[3]; STP removal 12%", "value": 1.157},
      {"measurement": "Risk quotient (PNECEC10), Turia catchment low flow median ePiE PEC", "setting": "[3]; STP removal 12%", "value": 0.300},
      {"measurement": "Risk quotient (PNECEC10), Turia catchment mean flow 1st percentile ePiE PEC", "setting": "[3]; STP removal 12%", "value": "<0.002"},
      {"measurement": "Risk quotient (PNECEC10), Turia catchment mean flow 99th percentile ePiE PEC", "setting": "[3]; STP removal 12%", "value": 0.955},
      {"measurement": "Risk quotient (PNECEC10), Turia catchment mean flow median ePiE PEC", "setting": "[3]; STP removal 12%", "value": 0.048},
      {"measurement": "Risk quotient (PNECEC10), Average refined PEC per country", "setting": "[3]; STP removal 43.6%", "value": 0.100},
      {"measurement": "Risk quotient (PNECEC10), Highest refined PEC per country", "setting": "[3]; STP removal 43.6%", "value": 0.660},
      {"measurement": "Risk quotient (PNECEC10), Lowest refined PEC per country", "setting": "[3]; STP removal 43.6%", "value": 0.002},
      {"measurement": "Risk quotient (PNECEC10), Median refined PEC per country", "setting": "[3]; STP removal 43.6%", "value": 0.072},
      {"measurement": "Risk quotient (PNECEC10), Average refined PEC per country", "setting": "[3]; STP removal 73.1%", "value": 0.064},
      {"measurement": "Risk quotient (PNECEC10), Highest refined PEC per country", "setting": "[3]; STP removal 73.1%", "value": 0.422},
      {"measurement": "Risk quotient (PNECEC10), Lowest refined PEC per country", "setting": "[3]; STP removal 73.1%", "value": "<0.002"},
      {"measurement": "Risk quotient (PNECEC10), Median refined PEC per country", "setting": "[3]; STP removal 73.1%", "value": 0.047},
      {"measurement": "risk quotient for the PNECNOEC", "setting": "[3]; initial use‐based Europe‐wide PEC", "value": 2.27},
      {"measurement": "Risk quotient (PNECEC10), Maximum MEC", "setting": "[3]; surface water MECs", "value": 1.131},
      {"measurement": "Risk quotient (PNECEC10), Median MEC", "setting": "[3]; surface water MECs", "value": "~0.003"}
    ]}
  ]
}
